From patent US20230104487A1, “11-(4-CHLOROPHENYL)-4-(2,3-DIHYDRO-1H-INDOLE-1-CARBONYL)-3,11-DIMETHYL-5,10,DIOXATRICYCLO[7.4.0.0,2,6,]TRIDECA-1,3,6,8-TETRAEN-13-ONE AND DERIVATIVES AS DESTABILIZER OF CRY1 FOR THE TREATMENT OF CIRCADIAN RHYTHM ASSOCIATED DISEASES AND DISORDERS” (KOC UNIVERSITESI, priority 2019, published 2023)
“Also recorded” adds a separate entry of the source.

Experiments:
[1] = system: CRY2; experiment: Protein immunoblot, synchronized U2-OS cells, CRY2; format: cell-based, human; conditions: 10 μM, 80-92 h
Protocol: FIGS. 3A-3G are an illustration of FORMULA I decreased CRY1 level in synchronized U2-OS cells. Confluent U2-OS cells were synchronized by 2 h treatment with dexamethasone ([…]) and medium replaced with fresh medium containing FORMULA I or solvent (DMSO final 0.5%). Cells were harvested at indicated time points. FIGS. 3A-3B show lysed cells were analyzed via protein immunoblot technique. […] CRY levels in DMSO control divided by that of in FORMULA I treated samples were reported (mean±SEM, n=4). FIGS. 3C-3G show cells were subjected to reverse-transcription-quantitative polymerase chain reaction (RT-qPCR). […] Expression level of genes was normalized according to the expression level of that gene at 72ndh. (Data represent the mean±SEM, n=3 with duplicates ***: p<0.001 **: p<0.005, *: p<0.05 versus DMSO control by two-way ANOVA).
Cells were lysed in RIPA buffer (50 mM Tris, 150 mM NaCl, 1% Triton-X, 0.1% SDS) with fresh Protease inhibitor cocktail (PIC). After centrifugation at 13000 rpm for 15 minutes at 4° C., supernatant was used to determine the protein amount using Pierce Protein Assay (Thermo Scientific) according to the manufacturer's instruction. Mice liver samples were homogenized and lysed with Dounce homogenizer and RIPA buffer. […] ECL buffer system (Advansta WesternBright) was used to visualize HRP chemi-luminescence via BioRad ChemiDoc Touch visualizer. […]

[2] = target: T1, CRY1 (Mus musculus, UniProt P97784); experiment: CRY1 level in mouse liver (whole cell lysate, cytosolic and nuclear fraction); format: in vivo; parameters: from tissue; host or cells: liver of C57BL/6J mice; conditions: 25 and 50 mg/kg i.p., 6 h
T1 sequence (P97784 1-606): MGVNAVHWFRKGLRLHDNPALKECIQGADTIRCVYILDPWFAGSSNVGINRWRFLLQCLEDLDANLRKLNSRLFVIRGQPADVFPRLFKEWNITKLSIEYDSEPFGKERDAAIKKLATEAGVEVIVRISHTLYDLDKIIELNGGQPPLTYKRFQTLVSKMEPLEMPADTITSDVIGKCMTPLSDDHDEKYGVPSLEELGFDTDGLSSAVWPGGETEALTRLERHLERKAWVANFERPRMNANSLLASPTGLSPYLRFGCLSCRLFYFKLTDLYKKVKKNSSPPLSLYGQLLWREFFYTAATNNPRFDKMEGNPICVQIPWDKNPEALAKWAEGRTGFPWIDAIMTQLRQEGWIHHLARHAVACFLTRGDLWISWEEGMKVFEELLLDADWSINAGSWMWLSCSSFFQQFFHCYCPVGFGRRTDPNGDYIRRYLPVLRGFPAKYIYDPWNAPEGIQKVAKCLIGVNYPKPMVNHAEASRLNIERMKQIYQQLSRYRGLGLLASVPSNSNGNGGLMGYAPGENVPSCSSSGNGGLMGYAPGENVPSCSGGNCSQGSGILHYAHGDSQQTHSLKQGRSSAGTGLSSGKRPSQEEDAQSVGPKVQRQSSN
Protocol: FIGS. 5A-5G are an illustration of FORMULA I decreased the nuclear CRY1 in mice liver. FORMULA I (25 mg/kg or 50 mg/kg) or vehicle intraperitoneally administered to C57BL/6J mice. 6 h after the treated mice were sacrificed (n=3). […] FIGS. 5A-5B show an effect of FORMULA I in WCL. FIG. 5C-5D show an effect of FORMULA I in cytosolic fraction. FIGS. 5E-5F show an effect of FORMULA I in nuclear fraction of muce liver. […] (Data represent the mean±SEM, n=3 (with duplicates in RT-PCR) *: p<0.05 versus control by student t-test).
Cells were lysed in RIPA buffer (50 mM Tris, 150 mM NaCl, 1% Triton-X, 0.1% SDS) with fresh Protease inhibitor cocktail (PIC). After centrifugation at 13000 rpm for 15 minutes at 4° C., supernatant was used to determine the protein amount using Pierce Protein Assay (Thermo Scientific) according to the manufacturer's instruction. Mice liver samples were homogenized and lysed with Dounce homogenizer and RIPA buffer. After homogenization samples were incubated 10 minutes on ice. After centrifugation 13000 rpm 15 minutes at 4° C. supernatant was used for the whole cell lysate. Subcellular fractionation of liver samples: Liver samples were homogenized with cytosolic lysis buffer (10 mM HEPES pH 7.9, 10 mM KCl, 0.1 mM EDTA, 0.05% NP40, proteasome inhibitor) by pipetting 40 times with a cut tip. Then samples were incubated 10 minutes on ice and centrifuged for 3 minutes at 3000 rpm at 4° C. Supernatant was saved in a new tube, and pellet was processed for the nuclear fraction. Supernatant was centrifuged at 13000 rpm for 3 minutes at 4° C. where new supernatant saved as the cytosolic fraction. […] ECL buffer system (Advansta WesternBright) was used to visualize HRP chemi-luminescence via BioRad ChemiDoc Touch visualizer. […]
Since CRYs are stabilized and degraded differently in cytosolic and nuclear compartments, we further analyzed the level of CRY1 in the cytosolic and nuclear fraction of the mouse liver. […]

Cc1c(C(=O)N2CCc3ccccc32)oc2ccc3c(c12)C(=O)CC(C)(c1ccc(Cl)cc1)O3 (stereo not shown) [FORMULA I, 11-(4-chlorophenyl)-4-(2,3-dihydro-1H-indole-1-carbonyl)-3,11-dimethyl-5,10,dioxatricyclo[7.4.0.0,2,6,]trideca-1,3,6,8-tetraen-13-one]
CRY2 protein level [1]: increased CRY2 levels; also recorded: increased the level of CRY2 | CRY1 level in cytosolic fraction of liver [2]: not statistically significant compared to controls; also recorded: slightly decreased the CRY1 levels | CRY1 level in nuclear fraction of liver [2]: significantly low compared to controls in dose dependent manner; also recorded: decreased the nuclear CRY1 level significantly; also recorded: selectively decrease CRY1 level in the nucleus | CRY1 level in whole cell lysate of liver [2]: slight decrease in CRY1 levels; also recorded: slightly decreased the CRY1 levels
